We go through 6 compounds from patent US6511970B1, “Prevention of ovarian cancer by administration of products that induce transforming growth factor-beta and/or apoptosis in the ovarian epithelium” (New Life Pharmaceuticals Inc., priority 1996, dated 2003).

Data set [1] concerns TGF β3. The data set is described as follows: Anti-TGF β3 immunohistochemical staining of M-100 cells. The format is cell-based, human. The note with it: 100 nM, 72 hours. Here is the method: An immortalized cell line, M-100, derived from a normal human ovarian epithelial cell culture established in our laboratory was plated in 100 mm plates at a concentration of 1 million cells per plate, in the presence of either 1,25 (OH)2 D3 or the Vitamin D analogue […] at doses of each (100 nM) or control medium, and allowed to incubate for 72 hours. After 72 hours, cells were scraped from each of the plates, fixed on glass slides, and stained immunohistochemically with anti-TGF β3 antibody.

The subject of data set [2] is human ovarian epithelial cells. Description: Cell death ELISA in normal human ovarian epithelial cell culture. Type of data set: cell-based. Conditions: 100 nM, 96 hours, p=0.01. Here is the method:
Example 10 addresses the effect of administration of Vitamin D on human ovarian epithelial cells. According to this example, a cell culture derived from normal ovarian epithelial cells was plated in 24 well plates at a concentration of 100,000 cells per well. After 24 hours, the wells were treated with 1,25-dihydroxyvitamin D3 at a 100 nM concentration or control medium, and allowed to incubate for 96 hours. All experiments were carried out in triplicate. After 96 hours, cell lysates were extracted from each of the wells, and the cytoplasmic fraction was normalized for cell number and analyzed for DNA-histone complexes indicative of apoptosis using a cell death ELISA (Boehringer Mannheim). A significant (300%) increase in apoptosis (p=0.01) was measured in the human ovarian epithelial cells treated with Vitamin D as compared with the controls.
In general terms: An ELISA detects its analyte on a solid surface through an enzyme-linked reagent.

The conditions of data set [3]: serum; cited from earlier work.
Data set [4] has as its system TGF beta-3. Description: TGF beta-3 immunohistochemical staining in monkey ovarian granulosa cells. The format is in vivo, cynomolgus monkeys. Conditions: Triphasil-pattern doses in diet. An excerpt: (§1) Young female adult cynomolgus monkeys were fed a diet for three years that contained either no hormones, the oral combination contraceptive “[…],” the estrogenic component of “[…] estradiol) alone, or the progestin component of “[…]” (levonorgestrel) alone, each administered in the same pattern that occurs in a “[…]” regimen. Doses were scaled on the basis of caloric intake, which is the accepted way to achieve human-equivalent doses. […] This cyclic regimen was repeated every 28 days continuously for 2 years. In a similar experiment, the effect of hormone treatment on expression of TGF-β3 was examined in the ovaries of primates from the trial described above. This study uses monkeys that were randomized in the study above of apoptosis in the ovarian epithelium. […] Ovarian sections from each of the monkeys were stained immunohistochemically for expression of TGF beta-3, using an anti-TGF-beta-3 monoclonal antibody. […] Two blinded observers then quantitated degree of expression of TGF-β3 by grading the intensity of staining on a scale of 1-4+ in several ovarian compartments: 1) epithelium, 2) oocytes, 3) endothelial cells, 4) granulosa cells. The staining was characterized as negative (0-2+) versus positive (3-4+). The following tables show the distribution of negative (0-2) and positive (3-4) staining among the randomized treatment groups for each separate ovarian compartment (i.e.: epithelial, oocyte cytoplasm, granulosa, and endothelial).

For data set [5], the system named is TGF beta-3. The data set is described as follows: TGF beta-3 immunohistochemical staining in monkey ovarian endothelial cells. The format is in vivo, cynomolgus monkeys. The note with it: Triphasil-pattern doses in diet.
Source text: as §1

Data set [6] relates to ovarian epithelial cells. The data set is described as follows: Apoptosis in monkey ovarian surface epithelium in vivo (Apoptag-plus staining). Also noted: species or system cynomolgus monkeys. Conditions: in diet, Triphasil-pattern human-equivalent doses, 28-day cycles for 2 years. An excerpt:
Young female adult cynomolgus monkeys were fed a diet for […] that contained either no hormones, the oral combination contraceptive “[…],” the estrogenic component of “[…] estradiol) alone, or the progestin component of “[…]” (levonorgestrel) alone, each administered in the same pattern that occurs in a “[…]” regimen. Doses were scaled on the basis of caloric intake, which is the accepted way to achieve human-equivalent doses. […] This cyclic regimen was repeated every 28 days continuously for 2 years. At the completion of the two years of the study, the animals were sacrificed, and their ovaries were removed and both formalin-fixed and paraffin embedded as well as flash frozen and stored at minus 70 degrees Celsius. Five-micron ovarian sections were mounted on coated slides, and stained with the Apoptag-plus kit (Oncor, Gaithersburg, Md.), which specifically labels the 3' end of free DNA fragments in cells undergoing DNA fragmentation, a characteristic of apoptosis. After staining, cells undergoing apoptosis were easily identified by their dark brown nuclear discoloration. The ovarian surface epithelium was examined histologically to assess ovarian epithelial morphology and to determine the percentage of ovarian cells undergoing apoptosis. To calculate the percentage of ovarian epithelial cells undergoing apoptosis, both the total number of ovarian epithelial cells and the number undergoing apoptosis were counted on each five-micron ovarian section. At each step, the investigators were completely blinded with regard to which treatment group was associated with each ovary.

Data set [7] relates to TGF beta-3. The data set is described as follows: TGF beta-3 immunohistochemical staining in monkey ovarian oocytes. The note with it: Triphasil-pattern doses in diet. The format is in vivo, cynomolgus monkeys.
Source text: as §1

In data set [8] the test system is TGF beta-3. The data set is described as follows: TGF beta-3 immunohistochemical staining in monkey ovarian epithelium. The note with it: Triphasil-pattern doses in diet. The format is in vivo, cynomolgus monkeys.
Source text: as §1

In data set [9] the test system is ovarian and oviductal tumors. The data set is described as follows: Two-year chemoprevention trial in the chicken. The note with it: two-year mark; feed restriction (anovulatory); preliminary results. Type of data set: in vivo. Here is the method:
A two-year prevention trial was performed in the chicken, designed to test the hypothesis that progestins confer prevention against ovarian cancer. Two thousand two year-old birds were randomized into several groups, including untreated controls, and groups receiving the progestins provera or levonorgestrel. The trial has just completed, and tumors accrued during the trial are currently being studied.

The subject of data set [10] is M-100 immortalized human ovarian epithelial cells. Description: Cell death ELISA (DNA-histone complexes) in M-100 cells. The format is cell-based. Conditions: 20 ng/ml, 96 hours, P<0.05. Here is the method: Specifically, a spontaneously immortalized cell line, M-100, derived from a normal human ovarian epithelial cell culture was plated in 24 well plates at a concentration of 100,000 cells per well. […] All experiments were performed in triplicate.

With `C=C1/C(=C\C=C2/CCC[C@]3(C)[C@@H]([C@H](C)CCCC(C)(C)O)CC[C@@H]23)C[C@@H](O)C[C@@H]1O` [1,25-dihydroxyvitamin D3], the “TGF β3 expression as compared to controls (in words)” value in data set [1] is “significant increase in TGF β3 expression”. The “increase in apoptosis as compared with the controls” value in [2] amounted to 300%. The half-life in [3] is 6 to 8 h.
As for `C#C[C@]1(O)CC[C@H]2[C@@H]3CCc4cc(O)ccc4[C@H]3CC[C@@]21C` [Ethinyl Estradiol (EE), ethinyl estradiol], in data set [4], the “Granulosa Cell staining Negative (0-2+), number of monkeys” value is recorded as 13; the “Granulosa Cell staining Positive (3-4+), number of monkeys” value was 8; the “Granulosa Cell staining Positive (3-4+), percent of monkeys” value is given as “(38%)”. Also, in data set [5], the “Endothelial staining Negative (0-2+), number of monkeys” value was determined as 21; the “Endothelial staining Positive (3-4+), number of monkeys” value was 5; the “Endothelial staining Positive (3-4+), percent of monkeys” value is listed as “(23%)”. Moreover, in data set [6], the “Median Percent of Apoptotic Cell Counts” value was found to be 1.8% and the “Range Percent of Apoptotic Cell Counts” value is reported as 0.1-28.6%. Further, the “Median Percent of Apoptotic Cell Counts” value in data set [6] (listed as Ethinyl-estradiol-only) came to 1.8%. Further, in [7], the “Oocyte cytoplasm staining Negative (0-2+), number of monkeys” value worked out at 4; the “Oocyte cytoplasm staining Positive (3-4+), number of monkeys” value came to 17; the “Oocyte cytoplasm staining Positive (3-4+), percent of monkeys” value is recorded as “(81%)”. For the same compound, in data set [8], the “Epithelial staining Negative (0-2+), number of monkeys” value is reported as 19; the “Epithelial staining Positive (3-4+), number of monkeys” value is given as 2; the “Epithelial staining Positive (3-4+), percent of monkeys” value was “(10%)”.
In the case of `CC(=O)O[C@]1(C(C)=O)CC[C@H]2[C@@H]3C[C@H](C)C4=CC(=O)CC[C@]4(C)[C@H]3CC[C@@]21C` [provera, medroxyprogesterone acetate], the “fewer ovarian and oviductal tumors than controls” value in data set [9] amounted to 35%.
On to `C#C[C@]1(O)CC[C@H]2[C@@H]3CCC4=CC(=O)CC[C@@H]4[C@H]3CC[C@@]21CC` [Levonorgestrel, levonorgestrel], for which, in [4], the “Granulosa Cell staining Negative (0-2+), number of monkeys” value stood at 16; the “Granulosa Cell staining Positive (3-4+), number of monkeys” value is recorded as 1; the “Granulosa Cell staining Positive (3-4+), percent of monkeys” value is recorded as “(6%)”. Further, in data set [5], the “Endothelial staining Negative (0-2+), number of monkeys” value came to 1; the “Endothelial staining Positive (3-4+), number of monkeys” value is listed as 16; the “Endothelial staining Positive (3-4+), percent of monkeys” value was “(94%)”. For the same compound, in [6], the “Median Percent of Apoptotic Cell Counts” value was 24.9% and the “Range Percent of Apoptotic Cell Counts” value is listed as 3.5-61.8%. Moreover, in data set [7], the “Oocyte cytoplasm staining Negative (0-2+), number of monkeys” value is listed as 3; the “Oocyte cytoplasm staining Positive (3-4+), number of monkeys” value amounted to 14; the “Oocyte cytoplasm staining Positive (3-4+), percent of monkeys” value is given as “(82%)”. The “fewer ovarian and oviductal tumors than controls” value in data set [9] is 35%. For the same compound, in data set [8], the “Epithelial staining Negative (0-2+), number of monkeys” value is 0; the “Epithelial staining Positive (3-4+), number of monkeys” value is on record as 17; the “Epithelial staining Positive (3-4+), percent of monkeys” value is listed as “(100%)”. Further, in data set [10], the “increase in apoptosis as compared to controls” value is 100%.
Take `C=C1/C(=C\C=C2/CCC[C@]3(C)[C@@H]([C@H](C)/C=C/C=C/C(O)(CC)CC)CC[C@@H]23)C[C@@H](O)C[C@@H]1O` [E1089]: in [1], the “TGF β3 expression as compared to controls (in words)” value is recorded as “significant increase in TGF β3 expression”.
As for `C=C1CC[C@H](O)C/C1=C/C=C1\CCC[C@]2(C)[C@@H]([C@H](C)CCCC(C)(C)O)CC[C@@H]12` [25-hydroxyvitamin D3], the “biological half-life (in words)” value in data set [3] was “several weeks”.

Usually half-life stands for the time needed for the level to fall by half in the phase considered.
